In patent US8637537B2, “Serine/threonine kinase inhibitors” (Genentech, Inc., priority 2011, dated 2014):
Counter-ions that a name gives are not always drawn. Like-named read-outs stand apart in the source and are kept apart here.

Molecular target: T1, human recombinant GST-PAK1-KD protein (Homo sapiens, UniProt Q13153)
T1 construct: residues #249-545 of human PAK1, UniProtKP/Swiss Q13153; His6 (N); made in house; host or cells: Sf9 insect cells, pAcGP67 baculovirus expression vector
Assay: GST-PAK1-KD (kinase domain) biochemical assay, microfluidic mobility shift
Protocol: Activity of human recombinant GST-PAK1-KD protein was assessed in vitro assay by observing the phosphorylation of a fluorogenic peptide substrate.
The peptide substrate is a consensus sequence based on various PAK1 substrates reported in the scientific literature. […] Incubations were carried out at 22° C. in MatriCal MP101 384-well Metriplates™. […] Following the 30-minute incubation, the assay mixtures were quenched by the addition of 3 μL of 250 mM EDTA, and the substrate and phosphorylated product were separated by capillary electrophoresis and detected using LabChip® Caliper 3000 (Caliper Life Sciences).

[1] = Table I, PAK1 Ki class, read-out: Ki
[2] = Table II, PAK1 Ki class, read-out: Ki

T1 sequence (Q13153 249-545): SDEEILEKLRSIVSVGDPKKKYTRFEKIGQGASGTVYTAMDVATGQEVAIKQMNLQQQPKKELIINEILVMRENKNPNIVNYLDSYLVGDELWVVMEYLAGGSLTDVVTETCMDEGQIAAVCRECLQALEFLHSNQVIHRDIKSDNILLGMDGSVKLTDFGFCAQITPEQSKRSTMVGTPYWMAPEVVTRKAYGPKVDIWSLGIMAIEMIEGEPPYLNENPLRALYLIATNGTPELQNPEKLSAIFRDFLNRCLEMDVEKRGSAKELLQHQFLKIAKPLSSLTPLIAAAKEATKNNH

| SMILES | Ki [1] [nM] | Ki [2] [nM] | also measured |
| --- | --- | --- | --- |
| C[C@H](Nc1nccc(Nc2cc(C3CC3)[nH]n2)n1)c1ccc2[nH]ccc2c1Cl [I-22, (S)—N^2-(1-(4-chloro-1H-indol-5-yl)ethyl)-N^4-(5-cyclopropyl-1H-pyrazol-3-yl)pyrimidine-2,4-diamine] | 50 to 250 |  |  |
| Cc1c[nH]c2cccc(CNc3nccc(Nc4cc(C5CC5)[nH]n4)n3)c12 [I-92, N^4-(5-Cyclopropyl-1H-pyrazol-3-yl)-N^2-((3-methyl-1H-indol-4-yl)methyl)pyrimidine-2,4-diamine] | < 50 |  |  |
| Fc1cc(CNc2nccc(Nc3cc(C4CC4)[nH]n3)n2)c2cc[nH]c2c1 [I-53, N^4-(5-cyclopropyl-1H-pyrazol-3-yl)-N^2-((6-fluoro-1H-indol-4-yl)methyl)pyrimidine-2,4-diamine] | < 50 |  |  |
| FC1(F)CC(c2cc(Nc3ccnc(NCc4ccc5[nH]cnc5c4Cl)n3)n[nH]2)C1 [I-105, N^2-((4-chloro-1H-benzo[d]imidazol-5-yl)methyl)-N^4-(5-(3,3-difluorocyclobutyl)-1H-pyrazol-3-yl)pyrimidine-2,4-diamine] | < 50 |  |  |
| Cc1cc(Nc2cc(C3CC3)[nH]n2)nc(NCc2ccc3[nH]cnc3c2)n1 [I-10, N^2-((1H-benzo[d]imidazol-5-yl)methyl)-N^4-(5-cyclopropyl-1H-pyrazol-3-yl)-6-methylpyrimidine-2,4-diamine] | < 50 |  |  |
| C[C@H](Nc1nccc(Nc2cc(C3CC3(F)F)[nH]n2)n1)c1ccc2[nH]ccc2c1 (mixture of isomers) [I-66, N^2—((S)-1-(1H-indol-5-yl)ethyl)-N^4-(5-(2,2-difluorocyclopropyl)-1H-pyrazol-3-yl)pyrimidine-2,4-diamine] | 50 to 250 |  |  |
| C[C@H](Nc1nccc(Nc2cc(C3CCCO3)[nH]n2)n1)c1ccc2[nH]cnc2c1 (stereo partly drawn) [I-44, N^2—((S)-1-(1H-benzo[d]imidazol-5-yl)ethyl)-N^4-(5-(tetrahydrofuran-2-yl)-1H-pyrazol-3-yl)pyrimidine-2,4-diamine] | 50 to 250 |  |  |
| Clc1cc2[nH]ccc2cc1CNc1nccc(Nc2cc(C3CC3)[nH]n2)n1 [I-93, N^2-((6-Chloro-1H-indol-5-yl)methyl)-N^4 (5-cyclopropyl-1H-pyrazol-3-yl)pyrimidine-2,4-diamine] | 50 to 250 |  |  |
| Clc1c(CNc2nccc(Nc3cc(COC4CCC4)[nH]n3)n2)ccc2[nH]cnc12 [II-43, N^2-((4-Chloro-1H-benzo[d]imidazol-5-yl)methyl)-N^4-(5-(cyclobutoxymethyl)-1H-pyrazol-3-yl)pyrimidine-2,4-diamine] |  | 50 to 250 | Ki (GST-PAK1-KD Inhibition Assay - Example 65, read-out: PAK1 inhibition Ki): 284 nM |
| CN(Cc1ccc2[nH]cnc2c1Cl)c1nccc(Nc2cc(C3CC3)[nH]n2)n1 [I-87, N^2-((4-chloro-1H-benzo[d]imidazol-5-yl)methyl)-N^4-(5-cyclopropyl-1H-pyrazol-3-yl)-N^2-methylpyrimidine-2,4-diamine] |  |  | Ki: < 50 nM |
| CC[C@H](Nc1nccc(Nc2cc(C3CC3)[nH]n2)n1)c1ccc2[nH]cnc2c1 [I-6, N^2-[(1S)-1-(1H-benzimidazol-5-yl)propyl]-N^4-(5-cyclopropyl-1H-pyrazol-3-yl)pyrimidine-2,4-diamine] | < 50 |  |  |
| Cc1cc(Nc2cc(C3CC3)[nH]n2)nc(NCc2ccc3[nH]ccc3c2Cl)n1 [I-19, N^2-((4-chloro-1H-indol-5-yl)methyl)-N^4-(5-cyclopropyl-1H-pyrazol-3-yl)-6-methylpyrimidine-2,4-diamine] | 50 to 250 |  |  |
| Cc1cc(Nc2ccnc(NCc3cccc4[nH]ccc34)n2)n[nH]1 [I-56, N^2-((1H-indol-4-yl)methyl)-N^4-(5-methyl-1H-pyrazol-3-yl)pyrimidine-2,4-diamine] | > 1000 |  |  |
| Fc1cc(CNc2ncc(F)c(Nc3cc(C4CCC4)[nH]n3)n2)c2cc[nH]c2c1 [I-90, N^4-(5-Cyclobutyl-1H-pyrazol-3-yl)-5-fluoro-N^2-((6-fluoro-1H-indol-4-yl)methyl)pyrimidine-2,4-diamine formate] | 250 to 1000 |  |  |
| Cn1ccc2cc(CNc3nccc(Nc4cc(C5CC5)[nH]n4)n3)ccc21 [I-33, N^4-(5-Cyclopropyl-1H-pyrazol-3-yl)-N^2-((1-methyl-1H-indol-5-yl)methyl)pyrimidine-2,4-diamine] | 250 to 1000 |  |  |
| Cc1ccc(CNc2nccc(Nc3cc(C4CC4)[nH]n3)n2)c2cc[nH]c12 [I-52, N^4-(5-Cyclopropyl-1H-pyrazol-3-yl)-N^2-((7-methyl-1H-indol-4-yl)methyl)pyrimidine-2,4-diamine] | 50 to 250 |  |  |

Continued, in another order:

| Ki [1] [nM] | Ki [2] [nM] | SMILES | also measured |
| --- | --- | --- | --- |
|  | < 50 | C[C@H](Nc1nccc(Nc2cc(C3CC3)[nH]n2)n1)c1cc(F)cc2[nH]cnc12 [II-18, (S)-N^4-(5-cyclopropyl-1H-pyrazol-3-yl)-N^2-(1-(6-fluoro-1H-benzo[d]imidazol-4-yl)ethyl)pyrimidine-2,4-diamine] |  |
|  | < 50 | Clc1c(CNc2nccc(Nc3cc(C4COC4)[nH]n3)n2)ccc2[nH]cnc12 [II-4, N^2-[(4-chloro-1H-benzimidazol-5-yl)methyl]-N^4-[5-(oxetan-3-yl)-1H-pyrazol-3-yl]pyrimidine-2,4-diamine, formic acid salt] |  |
|  | < 50 | COc1n[nH]c2cccc(CNc3nccc(Nc4cc(C5CC5)[nH]n4)n3)c12 [II-22, N^4-(5-Cyclopropyl-1H-pyrazol-3-yl)-N^2-((3-methoxy-1H-indazol-4-yl)methyl)pyrimidine-2,4-diamine] |  |
|  | 50 to 250 | Cc1cc(Nc2ccnc(NCc3ccc4[nH]cnc4c3Cl)n2)n[nH]1 [II-46, N^2-((4-Chloro-1H-benzo[d]imidazol-5-yl)methyl)-N^4-(5-methyl-1H-pyrazol-3-yl)pyrimidine-2,4-diamine] |  |
|  | 50 to 250 | COc1cc(Nc2ccnc(N(C)Cc3ccc4[nH]cnc4c3Cl)n2)n[nH]1 [II-29, N^2-((4-Chloro-1H-benzo[d]imidazol-5-yl)methyl)-N^4-(5-methoxy-1H-pyrazol-3-yl)-N^2-methylpyrimidine-2,4-diamine] |  |
|  | < 50 | Fc1cc(CNc2nccc(Nc3cc([C@H]4C[C@@H]4F)[nH]n3)n2)c2cn[nH]c2c1 [II-60, N^2-((6-fluoro-1H-indazol-4-yl)methyl)-N^4-(5-((1R,2S)-2-fluorocyclopropyl)-1H-pyrazol-3-yl)pyrimidine-2,4-diamine] |  |
|  | 50 to 250 | Cc1nc2c(CNc3ncc(F)c(Nc4cc(C5CC5)[nH]n4)n3)cc(Cl)cc2[nH]1 [II-32, N^2-((6-Chloro-2-methyl-1H-benzo[d]imidazol-4-yl)methyl)-N^4-(5-cyclopropyl-1H-pyrazol-3-yl)-5-fluoropyrimidine-2,4-diamine] |  |
|  | < 50 | CN(C)CCN(Cc1cccc2[nH]ccc12)c1nccc(Nc2cc([C@H]3C[C@@H]3F)[nH]n2)n1 [II-88, N^2-((1H-indol-4-yl)methyl)-N^2-(2-(dimethylamino)ethyl)-N^4-(5-((1R,2S)-2-fluorocyclopropyl)-1H-pyrazol-3-yl)pyrimidine-2,4-diamine] |  |
|  | < 50 | CN(C)CCCN(Cc1cc(F)cc2[nH]ncc12)c1nccc(Nc2cc(C3CC3)[nH]n2)n1 [II-48, N^4-(5-cyclopropyl-1H-pyrazol-3-yl)-N^2-(3-(dimethylamino)propyl)-N^2-((6-fluoro-1H-indazol-4-yl)methyl)pyrimidine-2,4-diamine] |  |
|  | 50 to 250 | C[C@H](Nc1nccc(Nc2cc(C3CC3)[nH]n2)n1)c1cccc2[nH]cnc12 [II-41, (S)-N^2-(1-(1H-benzo[d]imidazol-4-yl)ethyl)-N^4-(5-cyclopropyl-1H-pyrazol-3-yl)pyrimidine-2,4-diamine] |  |
|  | 50 to 250 | CN(Cc1ccc2[nH]cnc2c1Cl)c1nccc(Nc2cc(OCc3ccccn3)[nH]n2)n1 [II-36] |  |
|  | < 50 | Clc1c(CNc2nccc(Nc3cc(OCC4CC4)[nH]n3)n2)ccc2[nH]cnc12 [II-6, N^2-(4-Chloro-1H-benzoimidazol-5-ylmethyl)-N4-(5-cyclopropylmethoxy-1H-pyrazol-3-yl)-pyrimidine-2,4-diamine] |  |
|  | < 50 | Clc1c[nH]c2cccc(CNc3nccc(Nc4cc(C5CC5)[nH]n4)n3)c12 [II-112, N^2-((3-chloro-1H--indol-4-yl)methyl)-N^4-(5-cyclopropyl-1H-pyrazol-3-yl)pyrimidine-2,4-diamine] |  |
|  | < 50 | Fc1cc(CNc2nccc(Nc3cc([C@@H]4C[C@H]4F)[nH]n3)n2)c2cn[nH]c2c1 [II-64, N^2-((6-fluoro-1H-indazol-4-yl)methyl)-N^4-(5-((1S,2R)-2-fluorocyclopropyl)-1H-pyrazol-3-yl)pyrimidine-2,4-diamine] |  |
|  | < 50 | Cc1n[nH]c2cccc(CN(C)c3nccc(Nc4cc(C5CC5)[nH]n4)n3)c12 [II-19, N^4-(5-Cyclopropyl-1H-pyrazol-3-yl)-N^2-methyl-N^2-((3-methyl-1H-indazol-4-yl)methyl)pyrimidine-2,4-diamine] |  |
|  | < 50 | CO[C@@H](C)CN(Cc1cc(F)cc2[nH]ncc12)c1nccc(Nc2cc(C3CC3)[nH]n2)n1 [II-95, (S)-N^4-(5-cyclopropyl-1H-pyrazol-3-yl)-N^2-((6-fluoro-1H-indazol-4-yl)methyl)-N^2-(2-methoxypropyl)pyrimidine-2,4-diamine] |  |
|  | < 50 | CCN(Cc1ccc2[nH]cnc2c1Cl)c1ncc(F)c(Nc2cc([C@@H]3C[C@@H]3F)[nH]n2)n1 [II-111, N^2-((4-chloro-1H-benzo[d]imidazol-5-yl)methyl)-N^2-ethyl-5-fluoro-N^4-(5-((1S,2S)-2-fluorocyclopropyl)-1H-pyrazol-3-yl)pyrimidine-2,4-diamine] |  |
|  | < 50 | Fc1cc(CNc2nccc(Nc3cc([C@H]4C[C@@H]4F)[nH]n3)n2)c2cc[nH]c2c1 [II-82, N^2-((6-fluoro-1H-indol-4-yl)methyl)-N^4-(5-((1R,2S)-2-fluorocyclopropyl)-1H-pyrazol-3-yl)pyrimidine-2,4-diamine] |  |
